The target in this assay is T1, soluble guanylate cyclase (GUCYA3/GUCYB3) overexpressed in CHO cells (Homo sapiens, UniProt Q02108+Q02153).
T1 construct: expressed in transfected cells
T1 sequence (Q02108 1-690 partner): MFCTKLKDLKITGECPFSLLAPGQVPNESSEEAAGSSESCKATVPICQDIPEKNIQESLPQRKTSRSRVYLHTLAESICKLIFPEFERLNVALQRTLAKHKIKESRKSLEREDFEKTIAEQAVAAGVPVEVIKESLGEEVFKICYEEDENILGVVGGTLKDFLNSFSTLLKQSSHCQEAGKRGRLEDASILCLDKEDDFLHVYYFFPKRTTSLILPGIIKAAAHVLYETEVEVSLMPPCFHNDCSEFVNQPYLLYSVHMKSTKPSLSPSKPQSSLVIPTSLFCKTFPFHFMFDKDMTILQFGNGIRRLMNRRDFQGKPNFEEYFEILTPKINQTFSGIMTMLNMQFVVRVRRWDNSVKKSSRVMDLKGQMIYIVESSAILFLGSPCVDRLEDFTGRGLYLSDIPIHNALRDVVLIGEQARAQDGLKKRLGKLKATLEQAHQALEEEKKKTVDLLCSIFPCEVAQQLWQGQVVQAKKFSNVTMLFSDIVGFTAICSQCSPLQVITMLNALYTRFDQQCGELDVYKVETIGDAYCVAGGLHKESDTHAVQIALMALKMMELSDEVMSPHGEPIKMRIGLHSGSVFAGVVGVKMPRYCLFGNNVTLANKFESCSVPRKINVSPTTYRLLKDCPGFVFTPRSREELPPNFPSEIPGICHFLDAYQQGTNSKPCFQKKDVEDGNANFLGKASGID
T1 sequence (Q02153 1-619): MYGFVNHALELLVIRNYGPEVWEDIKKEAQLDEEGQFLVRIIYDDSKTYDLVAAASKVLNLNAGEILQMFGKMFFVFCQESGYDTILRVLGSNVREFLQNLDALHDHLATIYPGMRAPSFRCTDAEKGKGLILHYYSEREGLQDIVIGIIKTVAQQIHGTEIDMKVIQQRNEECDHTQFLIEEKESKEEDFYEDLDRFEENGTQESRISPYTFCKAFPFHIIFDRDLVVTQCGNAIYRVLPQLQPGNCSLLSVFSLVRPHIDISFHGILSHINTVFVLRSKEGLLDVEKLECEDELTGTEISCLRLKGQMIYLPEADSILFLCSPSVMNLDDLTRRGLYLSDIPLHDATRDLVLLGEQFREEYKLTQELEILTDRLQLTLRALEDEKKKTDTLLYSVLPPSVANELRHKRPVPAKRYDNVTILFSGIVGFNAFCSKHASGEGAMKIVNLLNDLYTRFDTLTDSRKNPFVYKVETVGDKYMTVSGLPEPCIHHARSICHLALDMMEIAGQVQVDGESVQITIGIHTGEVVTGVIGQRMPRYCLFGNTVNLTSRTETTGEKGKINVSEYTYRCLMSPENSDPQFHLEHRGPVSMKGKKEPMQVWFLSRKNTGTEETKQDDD
Kind of assay: CHO cellular assay (cGMP production, HTRF). The class given is cell-based. Conditions: CHO GUCY clone 8E10; assay buffer with 1 mM IBMX, 20 uM ODQ; 1 h at room temperature; cGMP HTRF; quantification limit 0.0005 μM; read-out: Mean EC50. From the text: Chinese hamster ovary (CHO) cells overexpressing soluble guanylate cyclase were generated to test the effect of sGC activators in a cellular context. Human cDNAs for GUCYA3 (RefSeq: NM_000856.3) and GUCYB3 (RefSeq: NM_000857.1) were amplified by PCR from a HUVEC (Human Umbilical Vein Endothelial Cells) cDNA library and cloned into mammalian expression vectors. CHO K1 cells (ATCC CCL-61) were transfected using Lipofectamine 2000 following manufacturer's instructions and stably expressing clones were identified by antibiotic selection. CHO GUCY clone 8E10 was used for subsequent experiments.
Cells were seeded at a density of 3000 cells/well in white 384-well proxyplates (Perkin Elmer) and incubated overnight, then the medium was removed and cells were washed with assay buffer (HBSS, 0.1% BSA, 1 mM IBMX, 20 uM ODQ). sGC activators were serially diluted in DMSO, then diluted in assay buffer prior to adding to cells (10 ul/well, final DMSO concentration 0.5%). Cells were incubated with compounds for 1 h at room temperature, then assayed for cGMP production using Cisbio cGMP HTRF kit (62GM2PEC) according to manufacturer's instructions.
The EC50s are calculated based on the amount of cGMP interpolated from the standard curve, using a 4-parameter sigmoidal dose-response.
Compounds of invention are active on sGC activation. Data in Table 1 collected using the assay of Biological Example 1.
On to `CCc1nc(NC2CCc3cccc(-c4cccc(-n5ncc(C(=O)O)c5OC)c4)c32)ccc1C1=CCN(C(=O)[C@H](C)O)CC1` (single isomer, unassigned) [Example 11A, 1-(3-((S or R)-3-((2-Ethyl-1′-((S)-2-hydroxypropanoyl)-1′,2′,3′,6′-tetrahydro-[3,4′-bipyridin]-6-yl)amino)-2,3-dihydro-1H-inden-4-yl)phenyl)-5-methoxy-1H-pyrazole-4-carboxylic acid], for which the EC50 was found to be 36 nM. In the case of `CCc1nc(NC2CCc3cccc(-c4cccc(-n5ncc(C(=O)O)c5OC)c4)c32)ccc1C1=CCN(C(=O)[C@H](C)O)CC1` (single isomer, unassigned) [Example 11B, 1-(3-((R or S)-3-((2-ethyl-1′-((S)-2-hydroxypropanoyl)-1′,2′,3′,6′-tetrahydro-[3,4′-bipyridin]-6-yl)amino)-2,3-dihydro-1H-inden-4-yl)phenyl)-5-methoxy-1H-pyrazole-4-carboxylic acid] it was 1.4 nM; in that of `CCc1nc(NC2CCc3cccc(-c4cccc(-n5ncc(C(=O)O)c5OC)n4)c32)ccc1C1=CCN(C(=O)[C@H](C)O)CC1` (single isomer, unassigned) [Example 17A, 1-(6-((R or S)-3-((2-ethyl-1′-((S)-2-hydroxypropanoyl)-1′,2′,3′,6′-tetrahydro-[3,4′-bipyridin]-6-yl)amino)-2,3-dihydro-1H-inden-4-yl)pyridin-2-yl)-5-methoxy-1H-pyrazole-4-carboxylic acid], 71 nM. For the compound `CCc1nc(NC2CCc3cccc(-c4cccc(-n5ncc(C(=O)O)c5OC)n4)c32)ccc1C1=CCN(C(=O)[C@H](C)O)CC1` (single isomer, unassigned) [Example 17B, 1-(6-((S or R)-3-((2-ethyl-1′-((S)-2-hydroxypropanoyl)-1′,2′,3′,6′-tetrahydro-[3,4′-bipyridin]-6-yl)amino)-2,3-dihydro-1H-inden-4-yl)pyridin-2-yl)-5-methoxy-1H-pyrazole-4-carboxylic acid], the EC50 stood at 3.5 nM. Then `CCc1cc(NC2CCc3cccc(-c4ccc(C)c(-n5ncc(C(=O)O)c5OC)c4)c32)ccc1C1CCN(C(=O)C2CC2)CC1` (single isomer, unassigned; (+)) [Example 7A, (+)-1-(5-(3-((4-(1-(Cyclopropanecarbonyl)piperidin-4-yl)-3-ethylphenyl)amino)-2,3-dihydro-1H-inden-4-yl)-2-methylphenyl)-5-methoxy-1H-pyrazole-4-carboxylic acid], with less than 0.5 nM; and `CCc1cc(NC2CCc3cccc(-c4ccc(OC)c(-n5ncc(C(=O)O)c5OC)c4)c32)ccc1C1CCN(C(=O)C2CC2)CC1` (single isomer, unassigned; (+)) [Example 8A, (+)-1-(5-(3-((4-(1-(Cyclopropanecarbonyl)piperidin-4-yl)-3-ethylphenyl)amino)-2,3-dihydro-1H-inden-4-yl)-2-methoxyphenyl)-5-methoxy-1H-pyrazole-4-carboxylic acid], with less than 0.5 nM.

Consider `CCc1cc(NC2CCc3cccc(-c4cccc(-n5ncc(C(=O)O)c5N)c4)c32)ccc1C1CCN(C(=O)C2CC2)CC1` (single isomer, unassigned; (+)) [Example 9A, (+)-5-Amino-1-(3-(3-((4-(1-(cyclopropanecarbonyl)piperidin-4-yl)-3-ethylphenyl)amino)-2,3-dihydro-1H-inden-4-yl)phenyl)-1H-pyrazole-4-carboxylic acid], for which the EC50 came out at 4 nM.

As to `CCc1nc(NC2CCc3cccc(-c4cccc(-n5ncc(C(=O)O)c5OC)c4)c32)ccc1C1=CCN(C(=O)C2CC2)CC1` (single isomer, unassigned; (+)) [Example 10A, (+)-1-(3-(3-((1′-(Cyclopropanecarbonyl)-2-ethyl-1′,2′,3′,6′-tetrahydro-[3,4′-bipyridin]-6-yl)amino)-2,3-dihydro-1H-inden-4-yl)phenyl)-5-methoxy-1H-pyrazole-4-carboxylic acid], the half-maximal effective concentration (EC50) is less than 0.5 nM.

What is called EC50 is the midpoint of the concentration-response curve.
